The record followed here is patent US20040006077A1, “Thiazine and oxazine derivatives as MMP-13 inhibitors” (priority 2002, published 2004).

Holding throughout (assay type): biochemical
Experiment [1] addresses T1, MMP-7 (Homo sapiens, UniProt P09237).
T1 sequence (P09237 95-267): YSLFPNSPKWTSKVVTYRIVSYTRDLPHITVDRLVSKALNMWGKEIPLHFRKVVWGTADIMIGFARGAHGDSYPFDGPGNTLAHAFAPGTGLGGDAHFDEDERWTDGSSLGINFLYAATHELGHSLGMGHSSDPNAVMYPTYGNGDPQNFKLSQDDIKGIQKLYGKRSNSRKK
Nature of the experiment: MMP-13 test adapted to MMP-7. Here is the method:
(§1) The inhibitory activity of the compounds of formula (I) according to the invention with respect to matrix metalloprotease-13 is evaluated by testing the ability of the compounds of the invention to inhibit the proteolysis of a peptide substrate with MMP-13.
(§2) The peptide substrate used in the test is the following peptide: Ac-Pro-Leu-Gly-thioester-Leu-Leu-Gly-OEt.
(§3) The inhibitory activity of a compound of formula (I) according to the invention is expressed as the IC50 value, which is the concentration of inhibitor for which an inhibition of 50% of the activity of the matrix metalloprotease under consideration is observed. […]
(§4) The concentrations of inhibitors present in the test samples range from 100 μM to 0.5 nM. The measurement of the proteolysis of the substrate peptide is monitored by measuring the absorbance at 405 nm using a spectrophotometer for reading microplates, at the laboratory temperature, the measurements being carried out continuously for 10 to 15 minutes.
(§5) The IC50 values are calculated from a curve in which the percentage of the catalytic activity relative to the control is represented on the X-axis and the concentration of inhibitor is represented on the Y-axis. […]

Experiment [2] deals with MMP-3 (Homo sapiens, UniProt P08254). Nature of the experiment: MMP-13 test adapted to MMP-3. Here is the method: as §1, §2, §3, §4, §5
For experiment [3], the target named is T2, MMP-1 (Homo sapiens, UniProt P03956).
T2 sequence (P03956 100-469): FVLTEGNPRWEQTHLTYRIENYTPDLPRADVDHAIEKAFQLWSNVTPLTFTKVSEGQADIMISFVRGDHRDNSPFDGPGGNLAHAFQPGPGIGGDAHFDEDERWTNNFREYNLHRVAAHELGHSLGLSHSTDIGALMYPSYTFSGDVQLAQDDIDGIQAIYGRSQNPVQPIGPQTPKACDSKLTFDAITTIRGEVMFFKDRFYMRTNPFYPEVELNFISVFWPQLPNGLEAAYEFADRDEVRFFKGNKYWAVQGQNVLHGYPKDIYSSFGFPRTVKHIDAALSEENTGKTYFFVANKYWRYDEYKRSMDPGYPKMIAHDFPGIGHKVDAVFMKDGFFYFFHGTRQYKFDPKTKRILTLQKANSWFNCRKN
Briefly: MMP-13 test adapted to MMP-1.

Experiment [4] addresses T3, catalytic domain of human MMP-13 (Homo sapiens, UniProt P45452).
T3 construct: 2.5 nM of the catalytic domain of human MMP-13
Nature of the experiment: Inhibition of proteolysis of thioester peptide substrate by MMP-13. The note with it: peptide substrate Ac-Pro-Leu-Gly-thioester-Leu-Leu-Gly-OEt 100 μM, pH 7.0, absorbance at 405 nm. Here is the method:
as §1, §2
The inhibitory activity of a compound of formula (I) according to the invention is expressed as the IC50 value, which is the concentration of inhibitor for which an inhibition of 50% of the activity of the matrix metalloprotease under consideration is observed.
To carry out this test, a reaction medium of 100 μt volume is prepared, containing: 50 mM of HEPES buffer, 10 mM of CaCl2 and 1 mM of 5,5′-dithiobis-(2-nitrobenzoic acid) (DTNB), and 100 μM of substrate, the pH being adjusted to 7.0.
Increasing concentrations of the inhibitory compound present in a 2.0% DMSO solution and 2.5 nM of the catalytic domain of human MMP-13 are added to the test samples.
as §4
The IC50 values are calculated from a curve in which the percentage of the catalytic activity relative to the control is represented on the X-axis and the concentration of inhibitor is represented on the Y-axis.

MMP-3, sequence (P08254 100-477, species assumed): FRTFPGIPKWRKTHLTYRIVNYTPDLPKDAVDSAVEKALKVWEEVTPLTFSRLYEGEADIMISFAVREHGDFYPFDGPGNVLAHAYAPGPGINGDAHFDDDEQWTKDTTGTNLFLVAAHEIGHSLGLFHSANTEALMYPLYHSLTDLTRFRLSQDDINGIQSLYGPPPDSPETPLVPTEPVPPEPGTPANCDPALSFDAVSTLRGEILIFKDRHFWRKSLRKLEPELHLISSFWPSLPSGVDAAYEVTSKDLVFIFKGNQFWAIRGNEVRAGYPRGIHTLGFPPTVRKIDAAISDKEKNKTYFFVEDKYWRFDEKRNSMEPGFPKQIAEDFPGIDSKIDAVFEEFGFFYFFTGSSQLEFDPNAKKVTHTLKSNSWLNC

Turning to `COc1ccc(CNC(=O)c2ccc3sc(=O)n(Cc4ccccc4)c(=O)c3c2)cc1` [Example 1, 3-Benzyl-2,4-dioxo-3,4-dihydro-2H-benz[e][1,3]thiazine-6-carboxylic acid 4-methoxy benzylamide], the IC50 (as a rule, the concentration that inhibits the measured activity by half) was determined as 30 µM in experiment [1], 18 µM in experiment [2], 30 µM in experiment [3] and 0.037 µM in experiment [4].
In turn, `COc1ccc(CNC(=O)c2ccc3oc(=O)n(Cc4ccc(OC)cc4)c(=O)c3c2)cc1` [Example 2] registered an IC50 in experiment [4] of 0.063 µM.
Same read-out and setting: the same measure for `O=C(O)c1ccc(Cn2c(=O)sc3ccc(C#CCc4ccccc4)cc3c2=O)cc1` [Example 3, 4-[2,4-Dioxo-6-(3-phenyl-prop-1ynyl)-4H-1,3-benzothiazin-3-ylmethyl]-benzoic acid]: 0.0012 µM.
